Data taken from US20150238626A1, “RECEPTOR LIGAND LINKED CYTOTOXIC MOLECULES” (ONTOCHEM GMBH, priority 2012, published 2015).
Where two headings read alike, the source gives them in different places.

Columns and labels:
MCF-7 = test: cells; format: cell-based, human; settings: 72 h compound treatment
Protocol: (§1) To evaluate the anti-proliferative and cytotoxic effect, respectively, of the compounds, a fluorometric resazurin-based cell viability assay was used. Human cancer and non-cancer cell lines (primarily breast cancer) were seeded with low densities into 96-well plates (1,500-20,000 cells per well), and were allowed to adhere for 24 h. Subsequently, the compounds—dissolved to appropriate concentrations in medium—were added to the cells and incubated for 4-72 h. In case the compound treatment was shorter than 72 h, the incubation solution was discarded, cells were rinsed once with cell culture medium and were allowed to proliferate in compound-free medium until 72 h were reached. Subsequently, medium was replaced by 50 μM resazurin in medium, and the cells were incubated for 2 h. Finally, the conversion of resazurin to resorufin by viable, metabolically active cells was measured using a Synergy 2 multiwell plate reader (BioTek, Bad Friedrichshall, Germany) with 540 nm excitation and 590 nm emission filter setting.
(§2) The cytostatic/cytotoxic effects of the new molecules according to this invention were evaluated by using a fluorometric cell proliferation assay. A panel of cell lines (most of them breast cancer) were treated for 4-72 hours with compound. The fluorometric read-out for cell viability was done after 72 hours in any case.

T-47D = test: Fluorometric resazurin-based cell proliferation assay, T-47D; set-up: species or system human; settings: for IC50: Homo sapiens, T47D, read-out: IC50 T-47D
Protocol: as §1, §2

MDA-MB-231 = test: Fluorometric resazurin-based cell proliferation assay, MDA-MB-231; settings: Homo sapiens
Protocol: as §1, §2

MDA-MB-468 = test: Fluorometric resazurin-based cell proliferation assay, MDA-MB-468; settings: Homo sapiens, read-out: IC50 MDA-MB-468
Protocol: as §1, §2

184B5 = test: Fluorometric resazurin-based cell proliferation assay, 184B5; settings: Homo sapiens, 72 h compound treatment
Protocol: as §1, §2

[1] = test system: caspases 3 and 7 in breast cancer cell lines; test: Apoptosis assay, effector caspases 3 and 7; format: cell-based, human; settings: several breast cancer cell lines
Protocol: Compound-mediated induction of apoptosis was examined using comercially available luminescent caspase assays (Promega, Mannheim, Germany). Human cancer and non-cancer cell lines (primarily breast cancer) were seeded with densities depending on the incubation time into 96-well plates (5,000-20,000 cells per well for 48 h incubations; 15,000-40,000 cells per well for 16-24 h incubations), and were allowed to adhere for 24 h. Subsequently, the compounds—dissolved to appropriate concentrations in medium—were added to the cells in 70 μL per well. Cells were incubated for 16-48 h under standard growth conditions. For the last hour of incubation, 10 μL/well of 8× resazurin solution (400 μM) were added in order to multiplex the caspase activities with the cell number/cell viability. When the incubation was finished, conversion of resazurin to resorufin was measured as described above. […] Luminescence read-out was done using a Synergy 2 multiwell plate reader (BioTek, Bad Friedrichshall, Germany).
Cells were treated with the indicated compound concentrations for 24 h (A, C) and 48 h (B, D), respectively. Subsequently, activation of effector caspases 3/7 was measured using a luminescence-based caspase-Glo™ assay kit (Promega), and cell viability was fluorimetrically detected using a Resazurin-based cell viability assay. […]

[2] = test system: breast cancer cell lines (MCF-7, MDA-MB-468); test: Proteome analysis by SILAC; format: cell-based, human; settings: various breast cancer cell lines
Protocol: SILAC was used for the examination of compound-mediated protein deregulations in the cells. In a first step, the incorporation rate of ^13C-labeled L-arginine (“heavy” medium) was determined for the used cell lines.
After finished incubation, the cells were harvested and lysed. […] The gel was cut into gel slices and in-gel digested with trypsin. The samples were measured with a LTQ Orbitrap Velos (Thermo Scientific) coupled with a nano-HPLC. The resulting mass spec-data were analyzed using the MaxQuant software.

HT-29 = test: Fluorometric resazurin-based cell proliferation assay, HT-29; set-up: species or system human; settings: 72 h compound treatment
Protocol: as §1, §2

SK-N-MC = test: Fluorometric resazurin-based cell proliferation assay, SK-N-MC; settings: Homo sapiens, 72 h compound treatment
Protocol: as §1, §2

HEK293 = test: Fluorometric resazurin-based cell proliferation assay, HEK293; settings: Homo sapiens, 72 h compound treatment
Protocol: as §1, §2

[3] = test system: panel of cell lines (most of them breast cancer); test: Cell proliferation assay, statements over the panel of cell lines; format: cell-based, human; settings: 72 h treatment
Protocol: as §1, §2

[4] = MDA-MB-231, 72 h, read-out: IC50 MDA-MB-231

Structure (SMILES)	IC50 (MCF-7; Homo sapiens, MCF7) [nM]	IC50 (T-47D; 72 h) [nM]	IC50 (MDA-MB-231; [4]) [nM]	IC50 (MDA-MB-468; MDA-MB-468, 72 h) [nM]	IC50 (184B5) [nM]	other results
CCC(C)[C@H](NC(=O)[C@H]1CCCCN1C)C(=O)N(C)[C@H](C[C@@H](OC(C)=O)c1nc(C(=O)N[C@@H](Cc2ccc(F)cc2)C[C@H](C)C(=O)NCCSSc2ccccn2)cs1)C(C)C (stereo partly drawn) [OC 169]	18.4	18.7	31	18.7	26.1	induction of apoptosis (caspase 3/7 activity) [1]: induction of apoptotic cell death mechanisms; regulation of protein expression (SILAC) [2]: comparable protein regulations
CCC(C)[C@H](NC(=O)[C@H]1CCCCN1C)C(=O)N(C)[C@H](C[C@@H](OC(C)=O)c1nc(C(=O)N[C@@H](Cc2ccc(F)cc2)C[C@H](C)C(=O)O)cs1)C(C)C (stereo partly drawn) [OC 501]	4.1	5.4	7.2	3.6		IC50 (HT-29; Homo sapiens, HT-29): 1.2 nM
CCCO[C@H](C[C@H](C(C)C)N(C)C(=O)[C@@H](NC(=O)[C@H]1CCCCN1C)C(C)CC)c1nc(C(=O)N[C@@H](Cc2ccccc2)C[C@H](C)C(=O)O)cs1 (stereo partly drawn) [OC 503]	4.2	8.3	10.9	8.2		IC50 (HT-29; Homo sapiens, HT-29): 0.8 nM
CCC(C)[C@H](NC(=O)[C@H]1CCCCN1C)C(=O)N(C)[C@H](C[C@@H](OC(C)=O)c1nc(C(=O)N[C@@H](Cc2ccccc2)C[C@H](C)C(=O)O)cs1)C(C)C (stereo partly drawn) [OC 509]	0.34					
CCCO[C@H](C[C@H](C(C)C)N(CCC)C(=O)[C@@H](NC(=O)[C@H]1CCCCN1C)C(C)CC)c1nc(C(=O)N[C@@H](Cc2ccc(O)cc2)C[C@H](C)C(=O)O)cs1 (stereo partly drawn) [OC 515]		0.09			0.09	higher efficacy compared to the reference compound Paclitaxel (T-47D; T-47D cells, 72 h treatment): up to 300 fold
CCCO[C@H](C[C@H](C(C)C)N(CCC)C(=O)[C@@H](NC(=O)[C@H]1CCCCN1C)C(C)CC)c1nc(C(=O)N[C@@H](Cc2ccc(O)cc2)C[C@H](C)C(=O)NCCSSc2ccccn2)cs1 (stereo partly drawn) [OC 516]		0.2				
CCC(C)[C@H](NC(=O)[C@H]1CCCCN1C)C(=O)N(COC(=O)CC(C)C)[C@H](C[C@@H](OC(C)=O)c1nc(C(=O)N[C@@H](Cc2ccc(O)cc2)C[C@H](C)C(=O)NCCSSc2ccccn2)cs1)C(C)C (stereo partly drawn) [OC 517]	1.9	4.9	1.6	1	6.2	IC50 (SK-N-MC): 1.1 nM; IC50 (HEK293): 5.9 nM; activity compared to Paclitaxel [3]: several folds more active than Paclitaxel
CC(=O)O[C@H]1C(=O)[C@@]2(C)[C@H]([C@H](OC(=O)c3ccccc3)[C@]3(O)C[C@H](OC(=O)[C@H](O)[C@@H](NC(=O)c4ccccc4)c4ccccc4)C(C)=C1C3(C)C)[C@]1(OC(C)=O)CO[C@@H]1C[C@@H]2O [Paclitaxel, reference compound]	25.5					IC50 (T-47D; 72 h compound treatment): 30.7 nM; IC50 (MDA-MB-231; MDA-MB-231, read-out: IC50 MDA-MB-231, 72 h compound treatment): 35.1 nM; IC50 (MDA-MB-468; MDA-MB-468, 72 h compound treatment): 31.1 nM
CC[C@H](C)[C@H](NC(=O)[C@H]1CCCCN1C)C(=O)N(COC(=O)CC(C)C)[C@H](C[C@@H](OC(C)=O)c1nc(C(=O)N[C@@H](Cc2ccc(O)cc2)C[C@H](C)C(=O)O)cs1)C(C)C [Tubulysin A, reference compound]						IC50 (MCF-7): 0.6 nM; IC50 (HT-29): 0.75 nM
